In US20090004185A1, “AMINO-SUBSTITUTED QUINAZOLINE DERIVATIVES AS INHIBITORS OF BETA-CATENIN/TCF-4 PATHWAY AND CANCER TREATMENT AGENTS” (WYETH, priority 2007, published 2009):

Key:
SV40-Luc = SV40-Luc control luciferase reporter assay, SV 5A8 cell line (SV40-Luc and SV40-R-Luc), control for non-specific inhibitors; assay type: cell-based, human; conditions: Homo sapiens, SV5A8, 24 h, SV 5A8 cells derived from SW480; 24 hours of incubation with compound; ratio Firefly/Renilla luciferase
Method in brief: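 SW480-derived lines with integrated reporters: SV 5A8 (SV40-Luc + SV40-R-Luc), Tcf 33.13 and Tcf 22C11 (Tcf-4-Luc + SV40-R-Luc). Compounds titrated onto cells for 24 h, final DMSO 0.316%. Firefly and Renilla luminescence read by dual-luciferase; firefly/Renilla ratio as % of control fitted for IC50.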

β-catenin/Tcf-4 = test: cells; assay type: cell-based; conditions: Homo sapiens, 24 hours of incubation with compound, ratio Firefly/Renilla luciferase
Method in brief: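 SW480-derived lines with integrated reporters (Tcf-4-driven firefly luciferase; SV40 firefly as specificity control; SV40 Renilla for cell number/toxicity), treated 24 hours with titrated compounds, final 0.316% DMSO. Dual-luciferase read-out; firefly/Renilla ratio as % of control, duplicate plates, IC50 (nM) from curve fit.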

[1] = SW480, 24 h, Tcf 33.13 cells derived from SW480
[2] = Tcf22C11, 24 h, Tcf 22C11 cells derived from SW480

IC50 (SV40-Luc) [nM] | IC50 (β-catenin/Tcf-4; [1]) [nM] | IC50 (β-catenin/Tcf-4; [2]) [nM] | SMILES
> 3010 | 588 | 942 | CCNc1nc(NCc2ccc(NC(=O)c3ccc(F)cc3)cc2)c2ccccc2n1 [Example 118, N-[4-({[2-(ethylamino)quinazolin-4-yl]amino}methyl)phenyl]-4-fluorobenzamide]
> 5160 | 987 | 1070 | Cc1ccc2nc(N3CCN[C@@H](C)C3)nc(NCc3ccc(NC(=O)c4ccc(F)cc4)cc3)c2c1 [Example 51, 4-fluoro-N-{4-[({6-methyl-2-[(3S)-3-methylpiperazin-1-yl]quinazolin-4-yl}amino)methyl]phenyl}benzamide]
> 8200 | 1060 | 1240 | Cc1ccc2c(NCc3ccc(NC(=O)c4ccc(F)cc4)cc3)nc(N(C)Cc3ccco3)nc2c1 [Example 221, 4-fluoro-N-{4-[({2-[(2-furylmethyl)(methyl)amino]-7-methylquinazolin-4-yl}amino)methyl]phenyl}benzamide]
> 16800 | 1190 | 1760 | CN(C)c1nc(NCc2ccc(NC(=O)c3ccc(Cl)nc3)cc2)c2ccc(I)cc2n1 [Example 110, 6-chloro-N-[4-({[2-(dimethylamino)-7-iodoquinazolin-4-yl]amino}methyl)phenyl]nicotinamide]
> 577 | 81 | 100 | CNc1nc(NCc2ccc(NC(=O)c3ccc(F)c(F)c3)cc2)c2cc(C)ccc2n1 [Example 32, 3,4-difluoro-N-[4-({[6-methyl-2-(methylamino)quinazolin-4-yl]amino}methyl)phenyl]benzamide]
> 5920 | 2960 | 2710 | CNc1nc(NCc2ccc(NC(=O)c3ccc(C#N)cc3)cc2)c2cc(C)ccc2n1 [Example 25, 4-cyano-N-[4-({[6-methyl-2-(methylamino)quinazolin-4-yl]amino}methyl)phenyl]benzamide]
> 4470 | 456 | 534 | CN(C)c1nc(NCc2ccc(NC(=O)c3ccc(Cl)nc3)cc2)c2cc(I)ccc2n1 [Example 72, 6-chloro-N-[4-({[2-(dimethylamino)-6-iodoquinazolin-4-yl]amino}methyl)phenyl]nicotinamide]
> 17900 | 2680 | 6820 | CN(C)c1nc(NCc2ccc(NC(=O)c3ccc(F)cc3)cc2)c2ccc(-c3ccc(C=O)cc3)cc2n1 [Example 99, N-[4-({[2-(dimethylamino)-7-(4-formylphenyl)quinazolin-4-yl]amino}methyl)phenyl]-4-fluorobenzamide]
> 10000 | 736 | 1150 | CCN1CCN(c2nc(NCc3ccc(NC(=O)c4ccc(F)cc4)cc3)c3ccc(C)cc3n2)CC1 [Example 227, N-[4-({[2-(4-ethylpiperazin-1-yl)-7-methylquinazolin-4-yl]amino}methyl)phenyl]-4-fluorobenzamide]
> 1400 | 227 | 223 | Cc1ccc2c(NCc3ccc(NC(=O)c4ccc(Cl)cc4)cc3)nc(N(C)C)nc2c1 [Example 196, 4-chloro-N-[4-({[2-(dimethylamino)-7-methyl-quinazolin-4-yl]amino}methyl)phenyl]benzamide]
> 10800 | > 5420 | > 5420 | Cc1ccc2c(NCc3ccc(NC(=O)Nc4ccc(Cl)cc4)cc3)nc(N(C)C)nc2c1 [Example 177, N-(4-chlorophenyl)-N′-[4-({[2-(dimethylamino)-7-methylquinazolin-4-yl]amino}methyl)phenyl]urea]
> 4910 | 118 | 249 | C/C=C/c1ccc2c(NCc3ccc(NC(=O)c4ccc(Cl)nc4)cc3)nc(N(C)C)nc2c1 [Example 112, 6-chloro-N-{4-[({2-(dimethylamino)-7-[(1E)-prop-1-en-1-yl]quinazolin-4-yl}amino)methyl]phenyl}nicotinamide]
